Reference: article PMC10126419, “pyHeart4Fish: Chamber-specific heart phenotype quantification of zebrafish in high-content screens” (Frontiers in Cell and Developmental Biology, 2023)
“Also recorded” adds a separate entry of the source. Where a name gives a salt, the structure may show the parent alone. Read-outs that look alike come from different tables or passages of the source.

How the values were obtained:
[1] = test system: zebrafish embryos; experiment: Manually assessed pericardial edema in treated zebrafish; format: in vivo; conditions: for Pericardial edema severity: myl7:eGFP zebrafish
From the text: FIGURE 4 Quantitative data analysis with pyHeart4Fish. […] (A) The left graph presents the detected heart rate derived from the fast fourier transformation (FFT). […] (B) Percentual data on the severity of manually assessed pericardial edema in treated Tg(myl7:eGPF)^twu34/+ zebrafish. (C) The relative contractility derived from percentual size changes of each heart chamber (left graph). Approximate ejection fraction determined by chamber volume changes (right graph). […] The number of fish analyzed is shown in brackets after the treatment condition. Dotted gray lines indicate z-scores of ±1.96 and statistical significance with an alpha error of 5%.

[2] = test system: zebrafish embryos; experiment: Gross morphology / development of treated zebrafish 2 dpf (brightfield); format: in vivo; conditions: 20 µM; for Gross morphology / developmental and teratogenic effects: 2 dpf
Procedure: FIGURE 5 Morphology of treated zebrafish 2 dpf. An overview of the gross phenotypes of treated zebrafish 2 days post-fertilization. All compounds were dissolved in DMSO; therefore, DMSO served as the negative control. NaCl served as the salt control. The effects of atorvastatin treatment on zebrafish embryos were previously established; thus, this drug was used as a positive control for cardioactivity. The aquatic toxic compound enilconazole was used as the toxic positive control. […] The black arrow in the image of iopanoic acid-treated zebrafish embryo indicates caudal fin deformity. The scale bar indicates 500 µm in overview brightfield images and 150 µm in fluorescence images. (a) Atrium; (v) ventricle.

[3] = test system: zebrafish embryos; experiment: Toxicity score (ToxScore) at increasing compound concentrations; conditions: 5–80 µM
Procedure: (§1) Embryos were dechorionated at 21 hpf using 0.22 mg/ml pronase (Merck Chemicals) for 12 min. Then, embryos were carefully washed three times with egg water and transferred into a 96-deep-well plate. After incubation at 28°C for 3 h, excess water was removed with a glass capillary and exchanged with 100 µL/well of 20 µM compound solution from the Prestwick Chemical Library (Prestwick Chemicals, France) in 0.2% DMSO (v/v) in egg water. […] Subsequently, embryos were exposed to compounds for 24 h at 28°C in the dark to enable testing of light-sensitive compounds. Solutions were removed at 48 hpf before wells containing embryos were washed three times with system water. Then, treated embryos were transferred into 12-well plates containing 1 ml 0.03% tricaine in system water (Sigma-Aldrich, Germany). Testing different concentrations (5–80 µM) of compounds and their respective controls followed the above protocol.
Embryos that were deceased and not intact were assigned a max. ToxScore value of 5.

[4] = test system: Tg(myl7:eGFP)^twu34/+ zebrafish embryos; experiment: Chamber-specific quantitative heart phenotyping with pyHeart4Fish; conditions: 20 µM; for Effect on heart rate / Effect on heart function / morphology: contractility, conduction, arrhythmia, HS, EF: vs DMSO controls; for Arrhythmia / Conduction defect: number of fish;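 as to all read-outs here: embryos exposed 24 h from 24 hpf in 0.2% DMSO egg water, tricaine-anaesthetised, heartbeat videos imaged at 470 nm and hearts analysed chamber by chamber from pixel-intensity beat curves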
Procedure: as §1
(§2) Oriented embryos in 96-well plates were automatically imaged using an [sequence] Imaging Machine ([sequence] Imaging, Germany) widefield microscope. Z-stacks of 10 slices (dZ = 15 µm) were acquired in brightfield (BF) and 470 nm channels with a 4×0.13 numerical aperture objective. The focal plane was detected in the 470 nm channel using a course and secondary fine software autofocus. BF integration time was fixed at 20 ms exposure time and 55% LED intensity. The exposure time for the 470 nm channel was set to 10 ms with a 10% LED intensity. Heartbeat videos of 6 s at 6 frames/second (f/s) were acquired with a time-lapse at a 0 s interval in the focus plane acquired after secondary autofocus using the previously described integration and exposure settings with a 10×0.25 numerical aperture objective.
(§3) Hearts are analyzed chamber-specifically via the user-assisted region of interest (ROI) selection. Cardiac morphology parameters (HS and shape) are extracted as the median of the first six images/frames. Raw data of heartbeat curves for the atrium and ventricle are derived from the sum of pixel intensities and normalized chamber areas. Frequencies (in s^-1) of atrium and ventricle contraction are obtained by applying sine-curve fitting or fast Fourier transformation (FFT) using the SciPy modules “optimize.curve_fit” and “fft.rfft/fft.rfftfreq”, respectively ([Virtanen et al., 2020]). Curve fitting is performed with a maximum of 30 iterations while increasing the frequencies of the fitted sine function. The best fit is selected using the correlation coefficient between the raw data and the fitted function implemented in the NumPy package. A fitted sine function and fitting score are also determined for a truncated signal (first quarter), and the best-fitted sine function is kept to account for an unstable heartbeat signal. In the case of FFT, the first harmonic of the FFT signal is used as the frequency of the atrium or ventricle contraction. Analysis with pyHeart4Fish provides heartbeat videos in GIF format, heartbeat curves as PNG/PDF files and a data sheet containing meta information and cardiac parameters.

[5] = test system: Tg(fli1a:nEGFP)^y7 zebrafish embryos; experiment: Primary high-content heart rate screen of the Prestwick Chemical Library (HeartBeat software v.2.1); format: in vivo; conditions: 20 µM
From the text: Acquired image series were preprocessed and analyzed using the previously published HeartBeat software v.2.1 and provided scripts ([Gierten et al., 2020]). For increased comparability between experiments, each quantitative HR value (beats per minute) was divided by the mean of the DMSO controls from the respective experiment. This procedure minimizes variation and creates specific fold-change values that are z-score normalized in the next step. A 90% CI was used to reduce the probability of false-negative results. Finally, data from compounds with insufficient N and known aquatic toxicity were removed.
Based on a previously established high-throughput screening pipeline, we performed a high-content drug screen in zebrafish for cardiovascular modulators ([Poureetezadi et al., 2014]; [Gierten et al., 2020]; [Westhoff et al., 2020]). […] About 98% of the library’s compounds are approved by the Food and Drug Administration (FDA), European Medicines Agency (EMA) or other regulatory agencies. The drug library was screened at a concentration of 20 µM for 24 h until 48 hpf using the transgenic zebrafish line Tg(fli1a:nEGFP)^y7. Subsequently, BF images and videos were captured at 2 dpf to assess gross morphology. HR was analyzed with the previously published tool HeartBeat (v.2.1) to identify potential hit compounds. A 90% CI threshold for effect sizes of ±1.64 was used to reduce false-negative results. […] The Open Targets platform and the Mayo Clinic Drugs and Supplements Database were systematically searched for compound names and common synonyms ([Drugs and Supplements, 2022]; [Open Targets, 2022]). The Medical Subject Headings (MeSH) terms “compound name” and “heart rate” were applied to NCBI PubMed literature research before the first five pages of publications sorted by relevance were screened for relevant information. Furthermore, compounds were filtered for unknown targets (n = 3), FDA black box warning (n = 6) and aquatic toxicity (n = 4). […] Therefore, compounds with n < 3 were excluded (n = 7).

[6] = parameters: method as in Prestwick Chemical Library; conditions: solvents; library annotation, ref Prestwick Chemical Library; cited from earlier work
[7] = test system: Tg(myl7:eGFP)^twu34/+ zebrafish embryos; conditions: in vivo;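 also: embryos exposed 24 h from 24 hpf in 0.2% DMSO egg water, tricaine-anaesthetised, heartbeat videos imaged at 470 nm and hearts analysed chamber by chamber from pixel-intensity beat curves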
Procedure: as §1, §2, §3

[8] = number of fish, 20 µM, Tg(myl7:eGFP)
[9] = 24 h until 48 hpf, Tg(fli1a:nEGFP)y7
[10] = Tg(fli1a:nEGFP)^y7, zebrafish, in vivo, 24 h

Row | SMILES | Edema: Mild [1, 8] | Edema: Moderate [1, 8] | Edema: No edema [1, 8] | Edema: Severe [1, 8] | Arrhythmia [4] | Conduction defect [4] | Lit. Solubility [6] | other results
1 | C=CCOC(Cn1ccnc1)c1ccc(Cl)cc1Cl (centres unmarked) [Enilconazole, enilconazole] | 2 | 0 | 3 | 0 | 1 | 0 |  | Gross morphology / developmental and teratogenic effects [2]: inhibited pigmentation; Treated fish with developmental delays ([2]; both zebrafish lines): 100%; Concentration-dependent toxic effects [3]: dose-dependent; Effect on heart rate [4]: significantly reduced HR
2 | CC(C)c1c(C(=O)Nc2ccccc2)c(-c2ccccc2)c(-c2ccc(F)cc2)n1CC[C@@H](O)C[C@@H](O)CC(=O)O [Atorvastatin, atorvastatin] | 5 | 1 | 5 | 0 | 11 | 0 |  | Effect on heart function / morphology: contractility, conduction, arrhythmia, HS, EF [4]: did not cause electrophysiological conduction defects; Effect on heart rate [4]: significantly decreased HR
3 | CN1CCCN(C(c2ccccc2)c2ccc(Cl)cc2)CC1.Cl.Cl (centres unmarked) [Homochlorcyclizine dihydrochloride] |  |  |  |  |  |  |  | Z-score Heart rate [5, 9]: -1.853 z-score
4 | Cc1cc(/C=C/c2ccc3cc(N(C)C)ccc3[n+]2C)c(C)n1-c1ccccc1 [Pyrvinium pamoate] | 1 | 0 | 4 | 0 | 1 | 0 |  | Gross morphology / developmental and teratogenic effects [2]: no teratogenic effects; Effect on heart function / morphology: contractility, conduction, arrhythmia, HS, EF [4]: did not affect relative contractility, conduction, and HS
5 | CN(C)CCOC(c1ccc(Cl)cc1)c1ccccn1.O=C(O)/C=C\C(=O)O (centres unmarked) [Carbinoxamine maleate salt] |  |  |  |  |  |  | H2O, EtOH, CHCl3 | 
6 | CCOC(=O)N1CCC(=C2c3ccc(Cl)cc3CCc3cccnc32)CC1 [Loratadine] |  |  |  |  |  |  |  | Z-score Heart rate [5, 9]: -1.771 z-score
7 | CN1CCC[C@@H]1CCO[C@](C)(c1ccccc1)c1ccc(Cl)cc1 [Clemastine fumarate] |  |  |  |  |  |  | MeOH | Z-score Heart rate [5, 10]: -2.7618 z-score
8 | CN(C)CCCOc1nn(Cc2ccccc2)c2ccccc12 [Benzydamine HCl] | 2 | 0 | 2 | 0 | 1 | 0 |  | Treated embryos with pericardial edema ([1]; 20 µM): 50%; Effect on heart function / morphology: contractility, conduction, arrhythmia, HS, EF [4]: do not induce arrhythmia; Effect on heart function / morphology: contractility, conduction, arrhythmia, HS, EF ([4]; listed as BZY): no conduction defects or arrhythmias were detected; also recorded: relative ventricle contractility increased significantly
9 | CN1CCC(OC(c2ccccc2)c2ccccc2)CC1 [Diphenylpyraline hydrochloride] |  |  |  |  |  |  | H2O, EtOH | Z-score Heart rate [5, 10]: -3.549 z-score
10 | CC(C)(C)c1ccc(C(O)CCCN2CCC(C(O)(c3ccccc3)c3ccccc3)CC2)cc1 (centres unmarked) [Terfenadine] |  |  |  |  |  |  | EtOH/H2O:50/50 | Z-score Heart rate [5, 10]: -5.761 z-score
11 | CN(C)CCC(c1ccc(Br)cc1)c1ccccn1 (centres unmarked) [Brompheniramine maleate] |  |  |  |  |  |  |  | Z-score Heart rate [5, 10]: -2.122 z-score
12 | Cc1ccc(/C(=C\CN2CCCC2)c2ccccn2)cc1.Cl [Triprolidine hydrochloride] |  |  |  |  |  |  | H2O, MeOH, EtOH | 
13 | N=C(N)c1ccc(OCCCCCOc2ccc(C(=N)N)cc2)cc1 [Pentamidine isethionate] | 4 | 0 | 4 | 0 | 1 | 0 |  | Gross morphology / developmental and teratogenic effects [2]: did not reveal teratogenic effects
14 | CN1CCN(C(c2ccccc2)c2ccc(Cl)cc2)CC1 (centres unmarked) [Chlorcyclizine hydrochloride] |  |  |  |  |  |  | H2O, CHCl3 | Z-score Heart rate [5, 9]: -2.061 z-score
15 | CN1CCCC(n2nc(Cc3ccc(Cl)cc3)c3ccccc3c2=O)CC1 (centres unmarked) [Azelastine hydrochloride] |  |  |  |  |  |  | H2O, EtOH, DMSO | Z-score Heart rate [5, 10]: -2.598 z-score
16 | CC(=O)[C@H]1CC[C@H]2[C@@H]3CC=C4C[C@@H](O)CC[C@]4(C)[C@H]3CC[C@]12C [Pregnenolone] | 1 | 3 | 0 | 1 | 1 | 1 |  | Pericardial edema severity ([1]; 20 µM): moderate to severe pericardial and yolk edema; Gross morphology / developmental and teratogenic effects [2]: teratogenic effects; Effect on heart function / morphology: contractility, conduction, arrhythmia, HS, EF ([4]; listed as P5): relative contractility of both heart chambers was affected by impaired contraction; also recorded: HS and morphology were not affected
17 | [Cl-].[Na+] [NaCl, sodium chloride] |  |  |  |  |  |  |  | Edema: Mild ([1]; zebrafish, in vivo): 7; Edema: Moderate ([1]; zebrafish, in vivo): 0; Edema: No edema ([1]; zebrafish, in vivo): 8; Edema: Severe ([1]; zebrafish, in vivo): 0; Arrhythmia [7]: 1; Chamber size Atrium Max. Contraction [7]: -0.090 z-score; Chamber size Atrium Max. Dilation [7]: -0.215 z-score; Chamber size Ventricle Max. Contraction [7]: -0.643 z-score; Chamber size Ventricle Max. Dilation [7]: 0.353 z-score; Conduction defect [7]: 0; Effect on heart function / morphology: contractility, conduction, arrhythmia, HS, EF [7]: did not significantly affect heart morphology or functionality; Ejection Fraction Atrium [7]: -0.097 z-score; Ejection Fraction Ventricle [7]: 1.036 z-score; FFT freq Atrium (heart rate) [7]: -0.679 z-score; FFT freq Ventricle (heart rate) [7]: -0.573 z-score; Heart size [7]: 0.745 z-score; Relative contractility Atrium [7]: -0.00158 z-score; Relative contractility Ventricle [7]: 0.272 z-score
18 | OCCN1CCN(CCCN2c3ccccc3C=Cc3ccccc32)CC1 [Opipramol diHCl] | 5 | 0 | 0 | 0 | 1 | 0 |  | Pericardial edema severity ([1]; 20 µM): mild edema; Gross morphology / developmental and teratogenic effects [2]: mild developmental delay; Effect on heart function / morphology: contractility, conduction, arrhythmia, HS, EF [4]: do not induce arrhythmia; Effect on heart rate [4]: did not affect HR; Effect on heart function / morphology: contractility, conduction, arrhythmia, HS, EF ([4]; listed as OPI): significantly reduced relative ventricular contractility
